“Also recorded” adds a separate entry of the source. Starred links: 1 amine or outer side, 2 acyl side, 3 side chain; linkers in the order of their positions; H or OH if unused. Positions of bridges follow the written chain, without caps; N, C: chain ends. Non-standard residues stand in square brackets, D forms with d. Residues, ends and D or L forms follow the SMILES beside them. Chains are numbered I, II in the order given. Actinocin(9to1) = Cc1c2oc3c(C)ccc(C(=O)[*:1])c3nc-2c(C(=O)[*:2])c(N)c1=O; NMeV = CN[C@H](C(=O)O)C(C)C; Sar = CNCC(=O)O
Legend:
MEPCE [1] = experiment: MEPCE expression after treatment with CDK9 / transcription elongation inhibitors (FIG. 3); assay type: cell-based
MCL1 protein = experiment: Western blot of anti-apoptotic and pro-apoptotic family members (FIG. 5); assay type: cell-based; settings: lung cancer cell line
Protocol: After treatment with a CDKI, cells were lysed in modified RIPA buffer containing 50 mM TRIS pH 7.4, 150 mM NaCl, 1 mM EDTA, 1% Brij-35, 0.1% deoxycholate, protease inhibitors (Roche Molecular Biochemicals, Mannheim, Germany). SDS-PAGE (4-12% gel) was used to resolve the proteins in the lysate. After electrophoresis, the proteins were electrotransferred onto a polyvinylidene fluoride microporous membrane and immunodetected using standard procedures. FIG. 4 is a Western blot of the multiple myeloma line NCI-H929, treated with CDKI(7) or DMSO and gene expression analyzed at certain time points during the treatment. […] Thus, the reduction in expression of genes in response to CDKI seen at the mRNA level by microarray is confirmed at the protein level by Western blotting.
FIG. 5 is a Western blot comparing the reduction of expression of anti-apoptotic and pro-apoptotic family members after treatment with CDKI(8).

MYC = experiment: Dog toxicology study, TaqMan mRNA in white blood cells after CDKI(12): MYC; assay type: in vivo; settings: any of the tested doses (0.1, 0.15 mg/kg), FIG. 10
Protocol: (§1) As part of a dog toxicology study, the pharmacodynamic markers MEPCE, MYC and MCL1 were measured by TaqMan® in white blood cells at various time points after CDKI(12) treatment.
(§2) The study had three groups of three dogs each. Dogs in Group 1 (#1001, #1002, and #1003) were treated with vehicle, dogs in Group 3 (#3001, #3002, and #3003) were treated with CDKI(12) at 0.1 mg/kg and dogs in Group 5 (#5001, #5002, and #5003) were treated with CDKI(12) at 0.15 mg/kg. Samples were collected before treatment 0 hour timepoint; 4 hours, 8 hours and 24 hours after treatment, for a total of 12 samples per group. Blood samples were received frozen in QIAGEN RNAprotect® Animal Blood tubes (Cat. #76554). RNA samples were extracted using the QIAGEN RNeasy® Protect Animal Blood kit (Cat. #73224). RNA samples were quantified using the RNA Quant-iT RNA assay® from Invitrogen (Cat. #Q32852) and read on an Invitrogen Qubit fluorometer (Cat. #Q32857). […] The relative quantification method was used to analyze the data; this method uses one sample as a calibrator sample and express mRNA levels relative to that sample. The results are expressed as RQ values (Relative Quantification) with RQ Min and RQ Max values determining a 95% confidence interval for the RQ value. The samples were grouped according to treatment and time point and data from three dogs, each measured in triplicate, were averaged. […]

MEPCE [2] = experiment: Dog toxicology study, TaqMan mRNA in white blood cells after CDKI(12): MEPCE; assay type: in vivo
Protocol: as §1
The study had three groups of three dogs each. Dogs in Group 1 (#1001, #1002, and #1003) were treated with vehicle, dogs in Group 3 (#3001, #3002, and #3003) were treated with CDKI(12) at 0.1 mg/kg and dogs in Group 5 (#5001, #5002, and #5003) were treated with CDKI(12) at 0.15 mg/kg. Samples were collected before treatment 0 hour timepoint; 4 hours, 8 hours and 24 hours after treatment, for a total of 12 samples per group. Blood samples were received frozen in QIAGEN RNAprotect® Animal Blood tubes (Cat. #76554). RNA samples were extracted using the QIAGEN RNeasy® Protect Animal Blood kit (Cat. #73224). RNA samples were quantified using the RNA Quant-iT RNA assay® from Invitrogen (Cat. #Q32852) and read on an Invitrogen Qubit fluorometer (Cat. #Q32857). First strand cDNA synthesis was performed on 500 ng of RNA in a reaction volume of 20 μl using a High Capacity cDNA Reverse Transcription Kit from Applied Biosystems (Cat. #4368814). The cDNA samples were then diluted to 2 ng/μl (10 ng in 5 μl in each reaction). Each TaqMan® reaction contained: 5 μl of cDNA, 1.25 μl of each probe (18S rRNA and gene of interest), 5 μl of water and 12.5 μl of TaqMan® Gene Expression Master Mix from Applied Biosystems (Cat. #4369016) for a total volume of 25 μl. TaqMan® reactions were run in triplicates on an ABI 7500® machine. The 18S rRNA level was used as an endogenous control to correct for variations in cDNA input. The relative quantification method was used to analyze the data; this method uses one sample as a calibrator sample and express mRNA levels relative to that sample. The results are expressed as RQ values (Relative Quantification) with RQ Min and RQ Max values determining a 95% confidence interval for the RQ value. The samples were grouped according to treatment and time point and data from three dogs, each measured in triplicate, were averaged. The vehicle group at 0 hour timepoint was used as the calibrator sample thus allowing us to measure changes in mRNA levels in response to the test article at various time points. The logarithm of the RQ values are plotted so that increases or decreases from the initial value can be more easily represented; on a logarithmic scale a 10-fold increase or 10-fold decrease in RQ value are represented as +1 and −1 respectively.
We have previously shown that the MEPCE mRNA is particularly sensitive to CDK9 inhibition and any CDKI (see Examples above). […] The mRNA levels were determined by TaqMan® using the relative quantification method. The calibrator sample is vehicle at 0 hour timepoint. […]

MCL1 = experiment: Dog toxicology study, TaqMan mRNA in white blood cells after CDKI(12): MCL1; assay type: in vivo; settings: any of the tested doses (0.1, 0.15 mg/kg), two probes, FIG. 11
Protocol: as §1, §2

SMILES	MEPCE expression (MEPCE [1])	expression of MCL1 protein (MCL1 protein; 2 hours after treatment)	expression of MCL1 protein (MCL1 protein; after 16 hour exposure)	MYC mRNA regulation (MYC)	MEPCE mRNA regulation (MEPCE [2]; 0.1 mg/kg, FIG. 9, 0.1 mg/kg)	MEPCE mRNA level at 4 and 8 hours (MEPCE [2]; 0.15 mg/kg, 4 and 8 hours)	MEPCE mRNA level by 24 hours (MEPCE [2]; 0.15 mg/kg, 24 hours)	MEPCE mRNA regulation (MEPCE [2]; 0.15 mg/kg, FIG. 9)	MCL1 mRNA regulation (MCL1)
Cc1c2oc3c(C)ccc(C(=O)N[C@@H]4C(=O)N[C@H](C(C)C)C(=O)N5CCC[C@H]5C(=O)N(C)CC(=O)N(C)[C@@H](C(C)C)C(=O)O[C@@H]4C)c3nc-2c(C(=O)N[C@@H]2C(=O)N[C@H](C(C)C)C(=O)N3CCC[C@H]3C(=O)N(C)CC(=O)N(C)[C@@H](C(C)C)C(=O)O[C@@H]2C)c(N)c1=O [Actinomycin D, reference compound] (I: T[dV]P[Sar][NMeV] / II: T[dV]P[Sar][NMeV]; ester I:1-I:C, II:1-II:C; linker I:N-II:N via Actinocin(9to1))	reduces the expression of MEPCE								
N[C@H]1CC[C@H](Nc2cc(-c3cccc(NCc4cccc(F)c4)n3)c(Cl)cn2)CC1 [CDKI(8)]	reduced	reduced	further reduced						
COC[C@@H](C)N[C@H]1CC[C@H](Nc2cc(-c3cccc(NCC4(C#N)CCOCC4)n3)c(Cl)cn2)CC1 [CDKI(12)]				does not show any significant down regulation; also recorded: not significantly down regulated	less down regulation; also recorded: clear down regulation	reduced	returns to pretreatment levels	clear down regulation	does not show any significant down regulation; also recorded: not significantly down regulated
